Data on 16 compounds can be found in patent US20240217951A1, “PCSK9 INHIBITORS AND METHODS OF USE THEREOF” (AstraZeneca AB, priority 2022, published 2024).

SMILES strings stand for the structures.

For experiment [1], the target named is T1, potassium ion channel hERG (human Ether-á-go-go-Related Gene) (Homo sapiens, UniProt Q12809).
T1 construct: expressed in transfected cells; host or cells: Chinese hamster ovary K1 (CHO)
The experiment is described as follows: Assay 5 - hERG assay (SyncroPatch 384PE patch clamp, CHO cells). The class given is cell-based. The following applies: geometric mean; CHO cells over-expressing hERG; read-out: Assay 5 (hERG Hu CHO IF EPh CR-Syncro) GMean IC50. The method in brief: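 Automated high-throughput patch clamp on CHO-K1 cells overexpressing hERG at room temperature, KF/KCl internal with escin, NMDG-containing external at pH 7.4. Six-point cumulative compound addition, 0.33% DMSO final; wells kept only with seal >30 MΩ, Z′ >0.4 and current >0.2 nA.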
In general terms: hERG is a cardiac potassium channel; its block is linked to QT prolongation.

In experiment [2] the target is GSK3β (Glycogen synthase kinase-3 beta) (Homo sapiens, UniProt P49841). The experiment is described as follows: Assay 6 - GSK3β assay (ThermoFisher Z-Lyte). The class given is biochemical. As to conditions: geometric mean; ATP Conc: 10 μM; read-out: Assay 6 (GSK3β FRET-Z-Lyte CR) GMean IC50 (μM) ATP Conc: 10. The method in brief: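 Z-Lyte fluorescence kinase assay with 0.22-0.92 ng GSK3β and 2 μM Ser/Thr 09 peptide in 50 mM HEPES pH 7.5, 10 mM MgCl2, 1 mM EGTA, 0.01% BRIJ-35. Kinase reaction 60 min at room temperature, then 60 min development. 10-point 3-fold titration from 10 μM in 1% DMSO, fitted to a sigmoidal dose-response curve.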

The target of experiment [3] is T2, PCSK9 (Homo sapiens, UniProt Q8NBP7, G670E/V474I). The experiment is described as follows: biochemical.
The target in experiment [4] is T2, PCSK9. Description: Assay 3 - PCSK9 LDL-C uptake assay in HepG2 cells. The class given is cell-based. The arrangement: TEV cleavage site (C); His6 (C); host or cells: added to HepG2 cells (ATCC #HB-8065). The following applies: 125 nM PCSK9, pHrodo Red-LDL, read-out: Assay 3 LDL uptake potency. The text has this:
Assay 3—PCSK9 LDL-C Uptake Assay
This assay measures for PCSK9 antagonist activity based on a test compound's capacity to restore LDL-C-uptake in HepG2 cells. The assay is based on exogenous PCSK9 and LDL-C complexed with a pH-sensitive dye. Outside the cells, at neutral pH, the pHrodo Red-LDL is dimly fluorescent but upon LDLR mediated endocytosis it fluoresces brightly. PCSK9 traffics the LDLR to intracellular degradation and reduces uptake of LDL-C. Inhibition of PCSK9 reduces LDLR degradation and the increased LDL-C uptake is quantified by fluorescence microscopy.
Preparation of Assay Reagents
Cell medium: MEM supplemented with 10% FBS, 1×NEAA and Sodium Pyruvate Assay medium: OptiMem supplemented with penicillin/streptomycin
Cells: HepG2 (ATCC #HB-8065)
Step by Step Protocol for Running the Assay:
• 1. Cryopreserved HepG2 cells were thawed in assay medium and centrifuged for 5 min at 250 g. Supernatant was discarded and the cell pellet resuspended in cell medium and counted with a Nucleocounter. Cells were again centrifuged 5 min at 250 g and the pellet was resuspended to 500000 cells/mL in assay medium. • 2. 20 μL of above cell mix was dispensed into black pclear TC treated 384 well plates with Multidrop Combi and left at room temperature for 20 minutes. • 3. Plates were incubated at 37° C., 5% CO2 for 24 h
• 1. Test compounds were prepared in concentration response in DMSO with a half-log dilution factor in DMSO in Echo 384 LDV plates starting at 10 mM. • 2. 30 nL of above test compounds were dispensed with Echo 655 to cells for a top concentration of 10 μM • 3. 10 μL PCSK9 in assay medium was dispensed to cells with Multidrop Combi for 125 nM final concentration in the wells. • 4. Plates were incubated at 37° C., 5% CO2 for 24 h
• 1. 10 μL pHrodo Red-LDL in assay medium was dispensed to cells with Multidrop Combi for 6 μg/mL • 2. Plates were incubated at 37° C., 5% CO2 and imaged with the Incucyte S3 after 4 h and 24 h
Image data was processed using Incucyte 2021, a software to identify cells and red fluorescent intensity. Screener was used to further process data. Data was normalized as % effect of the signal between median values of the on-plate controls of DMSO and 100 nM Evolocumab according to the formula % effect=−100*(x−DMSO)/(Evolocumab−DMSO) where x equals the measured signal. Concentration response data of the normalized values were fitted using a four-parameter logistic fit.

T2 sequence (Q8NBP7 with tags, fused parts or gaps V474I/G670E): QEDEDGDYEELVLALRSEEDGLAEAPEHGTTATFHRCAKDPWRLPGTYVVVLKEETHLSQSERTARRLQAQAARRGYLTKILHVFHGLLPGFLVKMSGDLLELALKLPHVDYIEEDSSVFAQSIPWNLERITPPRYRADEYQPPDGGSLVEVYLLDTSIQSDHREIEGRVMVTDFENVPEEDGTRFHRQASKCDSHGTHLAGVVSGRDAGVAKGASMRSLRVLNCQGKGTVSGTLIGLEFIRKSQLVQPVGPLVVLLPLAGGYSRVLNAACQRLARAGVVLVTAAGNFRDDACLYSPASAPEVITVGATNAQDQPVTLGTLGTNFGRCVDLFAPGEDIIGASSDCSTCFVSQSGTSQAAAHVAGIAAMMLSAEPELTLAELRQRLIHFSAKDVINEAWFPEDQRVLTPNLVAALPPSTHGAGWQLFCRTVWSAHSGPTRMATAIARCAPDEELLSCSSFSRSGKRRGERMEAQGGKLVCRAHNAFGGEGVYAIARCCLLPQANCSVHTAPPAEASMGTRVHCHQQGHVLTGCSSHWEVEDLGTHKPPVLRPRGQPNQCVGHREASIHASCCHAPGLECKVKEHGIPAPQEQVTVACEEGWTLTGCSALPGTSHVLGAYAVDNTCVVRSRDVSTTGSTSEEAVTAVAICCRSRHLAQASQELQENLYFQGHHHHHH
GSK3β (Glycogen synthase kinase-3 beta), sequence (P49841 whole entry): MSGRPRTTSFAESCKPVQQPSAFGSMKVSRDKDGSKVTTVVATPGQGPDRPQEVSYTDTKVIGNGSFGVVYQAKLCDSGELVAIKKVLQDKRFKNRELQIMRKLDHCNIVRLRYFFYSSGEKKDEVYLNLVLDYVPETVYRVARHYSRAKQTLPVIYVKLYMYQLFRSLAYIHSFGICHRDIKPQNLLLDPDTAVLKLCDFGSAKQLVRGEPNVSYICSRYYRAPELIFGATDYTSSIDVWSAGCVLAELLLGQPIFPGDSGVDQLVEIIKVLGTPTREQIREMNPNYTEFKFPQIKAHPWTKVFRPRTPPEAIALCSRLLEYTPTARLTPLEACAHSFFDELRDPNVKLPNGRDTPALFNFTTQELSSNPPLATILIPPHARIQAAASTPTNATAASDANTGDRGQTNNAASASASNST
T1 sequence (Q12809 whole entry): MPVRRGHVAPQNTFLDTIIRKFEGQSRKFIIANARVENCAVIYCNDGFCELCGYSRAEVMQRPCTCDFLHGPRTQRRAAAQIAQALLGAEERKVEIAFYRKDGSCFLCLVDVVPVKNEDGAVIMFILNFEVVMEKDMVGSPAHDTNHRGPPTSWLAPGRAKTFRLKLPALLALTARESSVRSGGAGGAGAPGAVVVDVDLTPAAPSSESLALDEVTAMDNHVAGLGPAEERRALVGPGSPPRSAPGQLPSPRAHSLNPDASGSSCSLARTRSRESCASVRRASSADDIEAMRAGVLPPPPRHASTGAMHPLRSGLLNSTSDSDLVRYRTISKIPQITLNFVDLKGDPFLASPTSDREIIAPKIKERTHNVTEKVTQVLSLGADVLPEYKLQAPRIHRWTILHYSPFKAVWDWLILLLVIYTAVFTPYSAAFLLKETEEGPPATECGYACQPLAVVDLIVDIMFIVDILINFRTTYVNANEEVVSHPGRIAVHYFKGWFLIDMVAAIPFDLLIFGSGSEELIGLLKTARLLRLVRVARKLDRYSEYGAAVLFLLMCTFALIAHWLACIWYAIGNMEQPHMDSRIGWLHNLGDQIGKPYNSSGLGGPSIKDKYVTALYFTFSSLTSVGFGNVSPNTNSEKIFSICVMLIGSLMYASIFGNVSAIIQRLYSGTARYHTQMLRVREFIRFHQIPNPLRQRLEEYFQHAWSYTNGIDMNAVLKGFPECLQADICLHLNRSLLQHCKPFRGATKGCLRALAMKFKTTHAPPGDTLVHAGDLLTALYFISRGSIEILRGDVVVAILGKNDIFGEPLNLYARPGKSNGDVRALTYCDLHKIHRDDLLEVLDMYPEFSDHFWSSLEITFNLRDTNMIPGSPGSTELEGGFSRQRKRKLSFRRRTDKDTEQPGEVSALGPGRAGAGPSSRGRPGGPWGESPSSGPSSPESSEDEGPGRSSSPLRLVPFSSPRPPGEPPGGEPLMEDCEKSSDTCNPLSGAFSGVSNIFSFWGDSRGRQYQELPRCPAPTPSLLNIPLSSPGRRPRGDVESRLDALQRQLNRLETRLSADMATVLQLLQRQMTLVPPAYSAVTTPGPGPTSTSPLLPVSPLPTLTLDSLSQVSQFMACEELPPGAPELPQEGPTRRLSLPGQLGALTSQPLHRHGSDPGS

A word on the IC50: it is the concentration that inhibits the measured activity by half. Take `Cc1ncc(N[C@H]2CC[C@H](Nc3ccc(-n4cc(C(=O)O)ccc4=O)cn3)C2)nc1C` [Example 14, 6′-(((1S,3S)-3-((5,6-Dimethylpyrazin-2-yl)amino)cyclopentyl)amino)-2-oxo-2H-[1,3′-bipyridine]-5-carboxylic acid]: the IC50 in experiment [1] is > 40000 nM; in experiment [2], > 10 µM; at PCSK9 [3], 52 nM. Moreover, the EC50 at PCSK9 [4] was 200 nM.
Regarding `Cc1ncc(N[C@H]2CC[C@H](Nc3ccc(-n4cccc(Cl)c4=O)cn3)C2)nc1C` [Example 19, 3-Chloro-6′-(((1S,3S)-3-((5,6-dimethylpyrazin-2-yl)amino)cyclopentyl)amino)-2H-[1,3′-bipyridin]-2-one], the IC50 in experiment [1] was 24600 nM; in experiment [2], > 10 µM; on PCSK9 [3], 5.3 nM. Moreover, the EC50 on PCSK9 [4] amounted to 100 nM.
For `Cc1ncc(N[C@H]2CC[C@H](Nc3ccc(-n4c(=O)ccc5cccnc54)cn3)C2)nc1C` [Example 20, 1-(6-(((1S,3S)-3-((5,6-Dimethylpyrazin-2-yl)amino)cyclopentyl)amino)pyridin-3-yl)-1,8-naphthyridin-2 (1H)-one], the IC50 was > 40000 nM in experiment [1], > 10 µM in experiment [2] and 17 nM against PCSK9 [3]. Moreover, the EC50 on PCSK9 [4] was 100 nM.
In the case of `Cc1ncc(N[C@H]2CC[C@H](Nc3ccc(-n4c(=O)n(C)c5cccnc54)cn3)C2)nc1C` [Example 21, 3-(6-(((1S,3S)-3-((5,6-Dimethylpyrazin-2-yl)amino)cyclopentyl)amino)pyridin-3-yl)-1-methyl-1,3-dihydro-2H-imidazo[4,5-b]pyridin-2-one], the figures for the half-maximal inhibitory concentration (IC50) (in experiment [1]; in experiment [2]; at PCSK9 [3]) were 33200 nM, > 10 µM and 11 nM, respectively. In addition, the EC50 at PCSK9 [4] is 100 nM.
As for `Cc1ncc(N[C@H]2CC[C@H](Nc3ccc(-n4cccc(C#N)c4=O)cn3)C2)nc1C` [Example 23, 6′-(((1S,3S)-3-((5,6-Dimethylpyrazin-2-yl)amino)cyclopentyl)amino)-2-oxo-2H-[1,3′-bipyridine]-3-carbonitrile], the figures for the IC50 (in experiment [1]; in experiment [2]; against PCSK9 [3]) were 35900 nM, > 10 µM and 8.8 nM, respectively. Moreover, the EC50 on PCSK9 [4] came out at 700 nM.
For `O=c1[nH]c2ccccc2n1-c1ccc(N[C@H]2CC[C@H](Nc3cnc(Cl)cn3)C2)nc1` [Example 31, 1-(6-(((1S,3S)-3-((5-Chloropyrazin-2-yl)amino)cyclopentyl)amino)pyridin-3-yl)-1,3-dihydro-2H-benzo[d]imidazol-2-one], in that order: 8200 nM, > 10 µM, 3.7 nM and 200 nM.
Regarding `O=c1ccc2cccnc2n1-c1ccc(N[C@H]2CC[C@H](Nc3cnc(Cl)cn3)C2)nc1` [Example 34, 1-(6-(((1S,3S)-3-((5-Chloropyrazin-2-yl)amino)cyclopentyl)amino)pyridin-3-yl)-1,8-naphthyridin-2 (1H)-one], the half-inhibitory concentration (IC50) in experiment [1] was 15400 nM; in experiment [2], > 10 µM; against PCSK9 [3], 5.1 nM. In addition, the EC50 at PCSK9 [4] amounted to 100 nM.
Turning to `Cc1cnc(N[C@H]2CC[C@H](Nc3ccc(-n4c(=O)ccc5ccccc54)cn3)C2)cn1` [Example 38, 1-(6-(((1S,3S)-3-((5-Methylpyrazin-2-yl)amino)cyclopentyl)amino)pyridin-3-yl)quinolin-2(1H)-one], the half-maximal inhibitory concentration (IC50) in experiment [1] is 25100 nM; in experiment [2] it was > 10 µM; against PCSK9 [3], 2.2 nM. For the same compound, the EC50 at PCSK9 [4] came to 100 nM.
As to `Cc1cnc(N[C@H]2CC[C@H](Nc3ccc(-n4cc(Cl)ccc4=O)cn3)C2)cn1` [Example 43, 5-Chloro-6′-(((1S,3S)-3-((5-methylpyrazin-2-yl)amino)cyclopentyl)amino)-2H-[1,3′-bipyridin]-2-one], the IC50 in experiment [1] was > 40000 nM; in experiment [2], > 10 µM; at PCSK9 [3], 22 nM. Moreover, the EC50 at PCSK9 [4] amounted to 700 nM.
Consider `Cc1cccn(-c2ccc(N[C@H]3CC[C@H](Nc4cnc(OC(F)F)cn4)C3)nc2)c1=O` [Example 84, 6′-(((1S,3S)-3-((5-(Difluoromethoxy)pyrazin-2-yl)amino)cyclopentyl)amino)-3-methyl-2H-[1,3′-bipyridin]-2-one], for which the IC50 in experiment [1] was 6900 nM; in experiment [2] it was > 10 µM; at PCSK9 [3], 11 nM. Moreover, the EC50 at PCSK9 [4] was found to be 700 nM.
In the same order, the values of `O=c1c(Cl)cccn1-c1ccc(N[C@H]2CC[C@H](Nc3cnc(OC(F)F)cn3)C2)nc1` [Example 85, 3-Chloro-6′-(((1S,3S)-3-((5-(difluoromethoxy)pyrazin-2-yl)amino)cyclopentyl)amino)-2H-[1,3′-bipyridin]-2-one] are 5600 nM, > 10 µM, 4.3 nM and 200 nM.
As to `O=c1ccc2cccnc2n1-c1ccc(N[C@H]2CC[C@H](Nc3cnc(OC(F)F)cn3)C2)nc1` [Example 87, 1-(6-(((1S,3S)-3-((5-(Difluoromethoxy)pyrazin-2-yl)amino)cyclopentyl)amino)pyridin-3-yl)-1,8-naphthyridin-2 (1H)-one], the results for the half-maximal inhibitory concentration (IC50) (in experiment [1]; in experiment [2]; against PCSK9 [3]) were 18100 nM, > 10 µM and 9.2 nM, respectively. The EC50 at PCSK9 [4] amounted to 100 nM.
Take `O=c1ccc2ccccc2n1-c1ccc(N[C@H]2CC[C@H](Nc3cnc(OC(F)F)cn3)C2)nc1` [Example 88, 1-(6-(((1S,3S)-3-((5-(Difluoromethoxy)pyrazin-2-yl)amino)cyclopentyl)amino)pyridin-3-yl)quinolin-2 (1H)-one]: the IC50 was 4500 nM in experiment [1], > 10 µM in experiment [2] and 4.5 nM at PCSK9 [3]. Also, the EC50 on PCSK9 [4] is 200 nM.
For the compound `Cn1c(=O)n(-c2ccc(N[C@H]3CC[C@H](Nc4cnc(OC(F)F)cn4)C3)nc2)c2ncccc21` [Example 96, 3-(6-(((1S,3S)-3-((5-(Difluoromethoxy)pyrazin-2-yl)amino)cyclopentyl)amino)pyridin-3-yl)-1-methyl-1,3-dihydro-2H-imidazo[4,5-b]pyridin-2-one], the values for the half-inhibitory concentration (IC50) (in experiment [1]; in experiment [2]; on PCSK9 [3]) were 12200 nM, > 10 µM and 7.3 nM, respectively. For the same compound, on PCSK9 [4], the EC50 was 700 nM.
`Cn1c(=O)n(-c2ccc(N[C@H]3CC[C@H](Nc4cnc(Cl)cn4)C3)nc2)c2ncccc21` [Example 98, 3-(6-(((1S,3S)-3-((5-Chloropyrazin-2-yl)amino)cyclopentyl)amino)pyridin-3-yl)-1-methyl-1,3-dihydro-2H-imidazo[4,5-b]pyridin-2-one]: the IC50 in experiment [1] is 10800 nM; in experiment [2] it was > 10 µM; at PCSK9 [3] it was 4.2 nM. Moreover, the EC50 at PCSK9 [4] turned out to be 800 nM.
In the same order, the values of `N#Cc1cccn(-c2ccc(N[C@H]3CC[C@H](Nc4cnc(Cl)cn4)C3)nc2)c1=O` [Example 101, 6′-(((1S,3S)-3-((5-Chloropyrazin-2-yl)amino)cyclopentyl)amino)-2-oxo-2H-[1,3′-bipyridine]-3-carbonitrile] are 19400 nM, > 10 µM, 5.5 nM and 600 nM.
